Here are results for 11 molecules from patent US12172975B2, “1H-indazole carboxamides as receptor-interacting protein kinase 1 inhibitors (RIPK1)” (BRISTOL-MYERS SQUIBB COMPANY, priority 2018, dated 2024).

Where a name gives a salt, the structure may show the parent alone. Read-outs that look alike come from different tables or passages of the source.

For assay [1], the system named is MLKL phosphorylation in HT29-L23 human colorectal adenocarcinoma cells. In words: MLKL Phosphorylation High-Content Assay. In kind it is cell-based. To be noted: 6 h, necroptosis induced with TNFα, SMAC mimetic and Z-VAD, read-out: pMLKL (IC50). The method in brief:
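Following fixation and staining for phospho-S358 MLKL with Hoechst nuclear counterstain, high-content imaging quantified phosphorylation in HT29-L23 cells challenged 6 h with TNFα 35 ng/mL, SMAC mimetic 700 nM and Z-VAD 140 nM. Nec-1s at 6.25 μM defined full inhibition; 4-parameter logistic fits yielded IC50 and Ymax.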

The target in assay [2] is His-GST-TVMV-hRIPK1 (1-324) (Homo sapiens (Human), UniProt Q13546). The assay can be described thus: RIPK1 HTRF Binding Assay. The settings on record: read-out: RIPK1 HTRF (IC50); FRET probe displacement, 1 h at rt.
His-GST-TVMV-hRIPK1 (1-324), sequence (Q13546 1-324): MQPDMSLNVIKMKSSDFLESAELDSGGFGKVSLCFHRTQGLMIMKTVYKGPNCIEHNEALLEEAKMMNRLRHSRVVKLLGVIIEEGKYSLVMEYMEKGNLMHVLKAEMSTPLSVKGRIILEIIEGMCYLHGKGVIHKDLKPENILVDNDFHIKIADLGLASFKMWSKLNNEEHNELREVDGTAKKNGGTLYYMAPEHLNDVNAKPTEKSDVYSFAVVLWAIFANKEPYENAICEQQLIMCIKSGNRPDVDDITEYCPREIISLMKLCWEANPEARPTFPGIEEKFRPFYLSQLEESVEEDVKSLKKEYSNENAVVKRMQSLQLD

On to `CNC(=O)c1n[nH]c2cc(-c3cnc(OC)c(C(=O)NCC[C@H](O)c4ccc(Cl)cc4)c3)cc(F)c12` [Example 145, 6-(5-{[(3S)-3-(4-chloro-phenyl)-3-hydroxypropyl]-carbamoyl}-6-methoxy-pyridin-3-yl)-4-fluoro-N-methyl-1H-indazole-3-carboxamide], for which the IC50 (in general, the concentration that gives 50% inhibition) turned out to be 200 nM in assay [1] (Homo sapiens) and 9.6 nM in assay [2].

For the molecule `CNC(=O)c1n[nH]c2cc(-c3cnc(OC)c(C(=O)N[C@@H](C)CC(=O)OC(C)(C)C)c3)cc(F)c12` [Example 146, tert-butyl (3S)-3-({5-[4-fluoro-3-(methylcarbamoyl)-1H-indazol-6-yl]-2-methox-pyridin-3-yl}formamido)-butanoate], the half-maximal inhibitory concentration (IC50) in assay [1] (Homo sapiens) was 400 nM; in assay [2] it was 69 nM.

Take `[2H]C([2H])([2H])NC(=O)c1n[nH]c2cc(-c3cnc(OC)c(C(=O)NCC(C)(C)C(=O)OC4CCOCC4)c3)ccc12` [Example 148, oxan-4-yl 3-[(2-methoxy-5-{3-[(deutero)methylcarbamoyl]-1H-indazol-6-yl}pyridin-3-yl)formamido]-2,2-dimethyl-propanoate]: the figures for the 50% inhibitory concentration (IC50) in assay [1] (Homo sapiens) and in assay [2] were 96 nM and 54 nM, respectively.

On to `[2H]C([2H])([2H])NC(=O)c1n[nH]c2cc(-c3cnc(OC)c(C(=O)NCC(C)(C)C(=O)OC(C)(C)C)c3)ccc12` [Example 149, tert-butyl 3-[(2-methoxy-5-{3-[(deutero)methylcarbamoyl]-1H-indazol-6-yl}pyridin-3-yl)-formamido]-2,2-dimethyl-propanoate], for which the IC50 in assay [1] (Homo sapiens) turned out to be 74 nM; in assay [2], 33 nM.

Take `[2H]C([2H])([2H])NC(=O)c1n[nH]c2cc(-c3cnc(OC)c(C(=O)NCCC(=O)OC(C)(C)C)c3)ccc12` [Example 150, tert-butyl 3-[(2-methoxy-5-{3-[(deutero)methylcarbamoyl]-1H-indazol-6-yl}pyridin-3-yl)-formamido]propanoate]: the 50% inhibitory concentration (IC50) in assay [1] (Homo sapiens) turned out to be 110 nM; in assay [2] it was 32 nM.

Take `[2H]C([2H])([2H])NC(=O)c1n[nH]c2cc(-c3cnc(OC)c(C(=O)NC(C)c4ccccc4OC(F)(F)F)c3)ccc12` (stereo not shown) [Example 152, 6-[6-methoxy-5-({1-[2-(tri-fluoromethoxy)phenyl]ethyl}-carbamoyl)pyridin-3-yl]-N-(deutero)methyl-1H-indazole-3-carboxamide]: the 50% inhibitory concentration (IC50) in assay [1] (Homo sapiens) came to 3.3 nM; in assay [2] it was 20 nM.

`[2H]C([2H])([2H])NC(=O)c1n[nH]c2cc(-c3cnc(OC)c(C(=O)NCc4ccccc4OC(F)(F)F)c3)ccc12` [Example 153]: the values for the IC50 in assay [1] (Homo sapiens) and in assay [2] were 6.3 nM and 2.9 nM, respectively.

`CNC(=O)c1n[nH]c2cc(-c3cnc(C)c(C(=O)N[C@H]4CC[C@@H](c5ccccc5)C4)c3)ccc12` [Example 154, N-methyl-6-(6-methyl-5-{[(1S,3R)-3-phenylcyclopentyl]carbamoyl}-pyridin-3-yl)-1H-indazole-3-carbox-amide]: the IC50 amounted to 58 nM in assay [1] and 2.9 nM in assay [2].

As for `CNC(=O)c1n[nH]c2cc(-c3cnc(C)c(C(=O)NCc4cc(F)ccc4OC4CCCC4)c3)ccc12` [Example 157, 6-[5-({[2-(cyclopentyloxy)-5-fluoro-phenyl]methyl}carbamoyl)-6-methylpyridin-3-yl]-N-methyl-1H-indazole-3-carboxamide, TFA], the IC50 was 6.8 nM in assay [1] (Homo sapiens) and 2.1 nM in assay [2].

As for `CNC(=O)c1n[nH]c2cc(-c3cc(C(=O)NC(C)c4ccccc4OC(F)(F)F)c(OC)nc3C)ccc12` (stereo not shown) [Example 158, 6-[6-methoxy-2-methyl-5-({1-[2-(trifluoromethoxy)-phenyl]ethyl}carbamoyl)-pyridin-3-yl]-N-methyl-1H-indazole-3-carboxamide], the concentration for half-maximal inhibition (IC50) in assay [1] (Homo sapiens) was 21 nM; in assay [2], 35 nM.

With `CNC(=O)c1n[nH]c2cc(-c3cc(C(=O)NCC4CCCC4(C)C)c(OC)nc3C)ccc12` (stereo not shown) [Example 159, 6-(5-{[(2,2-dimethylcyclo-pentyl)methyl]carbamoyl}-6-methoxy-2-methyl-pyridin-3-yl)-N-methyl-1H-indazole-3-carboxamide], the results for the half-maximal inhibitory concentration (IC50) in assay [1] (Homo sapiens) and in assay [2] were 110 nM and 34 nM, respectively.
